Read-outs that look alike come from different tables or passages of the source.

Data on two molecules can be found in publication PMC9927415, “Tyrosine Kinase Inhibitors Display Potent Activity against Cryptosporidium parvum” (Microbiology Spectrum, 2022).

Holding throughout (experiment): KINOMEscan competitive binding
Experiment [1] deals with T1, KIT (Homo sapiens, UniProt P10721).
T1 construct: purchased DiscoverX (KINOMEscan)
The source says: (§1) The kinases were expressed as fusions to T7 bacteriophage. This is a sensitive, competitive binding assay where test compounds were used to displace immobilized ATP-site binding probe ligands from kinases of interest. The amount of kinase that remained bound to the immobilized probe ligands on the solid support was quantified. Percentage inhibition data were was plotted on kinome trees using the web-based tool KinMap (http://www.kinhub.org/kinmap) ([60]).

The target of experiment [2] is T2, Aurora kinase A (Homo sapiens, UniProt O14965).
T2 construct: purchased DiscoverX (KINOMEscan)
T2 sequence (O14965 1-403): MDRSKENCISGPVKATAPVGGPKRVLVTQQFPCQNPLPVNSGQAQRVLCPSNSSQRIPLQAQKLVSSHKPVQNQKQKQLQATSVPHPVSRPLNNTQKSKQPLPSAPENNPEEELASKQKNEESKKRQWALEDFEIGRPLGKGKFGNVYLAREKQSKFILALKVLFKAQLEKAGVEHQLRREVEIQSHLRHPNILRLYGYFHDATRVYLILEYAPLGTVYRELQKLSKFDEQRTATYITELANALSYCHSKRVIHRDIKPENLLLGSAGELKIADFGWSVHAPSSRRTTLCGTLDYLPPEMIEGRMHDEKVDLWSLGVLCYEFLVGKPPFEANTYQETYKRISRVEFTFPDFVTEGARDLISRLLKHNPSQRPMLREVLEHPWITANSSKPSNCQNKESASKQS
As to conditions: 10 µM, n=1; kinase AURKA; read-out: Percent inhibition AURKA.
Excerpt: as §1

Experiment [3] addresses T3, PDGFRβ (Homo sapiens, UniProt P09619).
T3 construct: purchased DiscoverX (KINOMEscan)
Excerpt: as §1

Experiment [4] concerns the target T4, CLK1 (Homo sapiens, UniProt P49759).
T4 construct: purchased DiscoverX (KINOMEscan)
Excerpt: as §1

Experiment [5] addresses T5, PDGFRα (Homo sapiens, UniProt P16234).
T5 construct: purchased DiscoverX (KINOMEscan)
Excerpt: as §1

Experiment [6] addresses T6, CSNK1D (Homo sapiens, UniProt P48730).
T6 construct: purchased DiscoverX (KINOMEscan)
Excerpt: as §1

The target in experiment [7] is T7, CDK5 (Homo sapiens, UniProt Q00535).
T7 construct: purchased DiscoverX (KINOMEscan)
As to conditions: 10 µM, n=1; kinase CDK5; read-out: Percent inhibition CDK5.
Excerpt: as §1

Experiment [8] addresses T8, EGFR (Homo sapiens, UniProt P00533).
T8 construct: purchased DiscoverX (KINOMEscan)
As to conditions: 10 µM, n=1; kinase EGFR; read-out: Percent inhibition EGFR.
Excerpt: as §1

Experiment [9] addresses T9, BIKE (Homo sapiens, UniProt Q9NSY1).
T9 construct: purchased DiscoverX (KINOMEscan)
As to conditions: 10 µM, n=1; kinase BIKE; read-out: Percent inhibition BIKE.
Excerpt: as §1

Experiment [10] concerns the target T10, CDK2 (Homo sapiens, UniProt P24941).
T10 construct: purchased DiscoverX (KINOMEscan)
As to conditions: 10 µM, n=1; kinase CDK2; read-out: Percent inhibition CDK2.
Excerpt: as §1

Experiment [11] addresses T11, KDR (VEGFR2) (Homo sapiens, UniProt P35968).
T11 construct: purchased DiscoverX (KINOMEscan)
To be noted: for inhibition at 10 µM: KINOMEscan, n=1, read-out: Percent inhibition, VEGFR2.
Excerpt: as §1

The target in experiment [12] is T12, AXL (Homo sapiens, UniProt P30530).
T12 construct: purchased DiscoverX (KINOMEscan)
T12 sequence (P30530 26-894): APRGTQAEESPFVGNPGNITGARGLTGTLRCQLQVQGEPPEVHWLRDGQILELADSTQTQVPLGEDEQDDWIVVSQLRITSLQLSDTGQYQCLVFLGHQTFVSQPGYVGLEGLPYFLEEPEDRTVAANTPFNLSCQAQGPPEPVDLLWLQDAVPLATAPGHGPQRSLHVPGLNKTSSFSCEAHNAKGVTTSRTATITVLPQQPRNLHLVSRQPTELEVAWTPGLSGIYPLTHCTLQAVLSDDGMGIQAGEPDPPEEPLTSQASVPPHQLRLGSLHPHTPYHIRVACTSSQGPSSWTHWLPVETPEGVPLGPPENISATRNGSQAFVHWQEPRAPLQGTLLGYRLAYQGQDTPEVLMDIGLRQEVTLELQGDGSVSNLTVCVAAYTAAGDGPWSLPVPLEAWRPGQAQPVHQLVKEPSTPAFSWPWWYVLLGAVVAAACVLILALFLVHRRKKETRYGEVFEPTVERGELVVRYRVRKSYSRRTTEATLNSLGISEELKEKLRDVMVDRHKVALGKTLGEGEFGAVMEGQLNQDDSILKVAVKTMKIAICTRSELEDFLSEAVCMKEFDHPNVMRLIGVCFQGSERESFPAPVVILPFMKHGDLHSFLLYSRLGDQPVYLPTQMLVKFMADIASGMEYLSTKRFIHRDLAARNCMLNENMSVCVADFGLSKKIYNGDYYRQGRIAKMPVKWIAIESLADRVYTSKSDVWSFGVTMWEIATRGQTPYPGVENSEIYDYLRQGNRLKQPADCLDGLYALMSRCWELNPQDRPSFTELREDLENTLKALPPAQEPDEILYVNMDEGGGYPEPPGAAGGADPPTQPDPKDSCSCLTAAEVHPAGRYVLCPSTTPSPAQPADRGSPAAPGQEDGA
To be noted: 10 µM, n=1; kinase AXL; read-out: Percent inhibition AXL.
Excerpt: as §1

Experiment [13] has as its target T13, PKAC-alpha (Homo sapiens, UniProt P17612).
T13 construct: purchased DiscoverX (KINOMEscan)
As to conditions: n=1, read-out: Percent inhibition, PKAC-alpha.

For experiment [14], the target named is T14, PKAC-beta (Homo sapiens, UniProt P22694).
T14 construct: purchased DiscoverX (KINOMEscan)
To be noted: n=1, read-out: Percent inhibition, PKAC-beta.

[15] abbreviates: 10 μM, n = 1, read-out: percent inhibition KIT.
Setting [16] is: 10 µM, n=1, kinase KIT, read-out: Percent inhibition KIT.
The mark [17] stands for this setting: KINOMEscan, 10 µM, n=1, read-out: Percent inhibition, PDGFRB.
[18] abbreviates: 10 µM, n=1, kinase CLK1, read-out: Percent inhibition CLK1.
Where [19] appears, read: 10 μM, n = 1, read-out: percent inhibition PDGFRα.
Setting [20] is: KINOMEscan, 10 µM, n=1, read-out: Percent inhibition, PDGFRA.
Setting [21] is: 10 µM, n=1, kinase CSNK1D, read-out: Percent inhibition CSNK1D.

T11 sequence (P35968 20-1356): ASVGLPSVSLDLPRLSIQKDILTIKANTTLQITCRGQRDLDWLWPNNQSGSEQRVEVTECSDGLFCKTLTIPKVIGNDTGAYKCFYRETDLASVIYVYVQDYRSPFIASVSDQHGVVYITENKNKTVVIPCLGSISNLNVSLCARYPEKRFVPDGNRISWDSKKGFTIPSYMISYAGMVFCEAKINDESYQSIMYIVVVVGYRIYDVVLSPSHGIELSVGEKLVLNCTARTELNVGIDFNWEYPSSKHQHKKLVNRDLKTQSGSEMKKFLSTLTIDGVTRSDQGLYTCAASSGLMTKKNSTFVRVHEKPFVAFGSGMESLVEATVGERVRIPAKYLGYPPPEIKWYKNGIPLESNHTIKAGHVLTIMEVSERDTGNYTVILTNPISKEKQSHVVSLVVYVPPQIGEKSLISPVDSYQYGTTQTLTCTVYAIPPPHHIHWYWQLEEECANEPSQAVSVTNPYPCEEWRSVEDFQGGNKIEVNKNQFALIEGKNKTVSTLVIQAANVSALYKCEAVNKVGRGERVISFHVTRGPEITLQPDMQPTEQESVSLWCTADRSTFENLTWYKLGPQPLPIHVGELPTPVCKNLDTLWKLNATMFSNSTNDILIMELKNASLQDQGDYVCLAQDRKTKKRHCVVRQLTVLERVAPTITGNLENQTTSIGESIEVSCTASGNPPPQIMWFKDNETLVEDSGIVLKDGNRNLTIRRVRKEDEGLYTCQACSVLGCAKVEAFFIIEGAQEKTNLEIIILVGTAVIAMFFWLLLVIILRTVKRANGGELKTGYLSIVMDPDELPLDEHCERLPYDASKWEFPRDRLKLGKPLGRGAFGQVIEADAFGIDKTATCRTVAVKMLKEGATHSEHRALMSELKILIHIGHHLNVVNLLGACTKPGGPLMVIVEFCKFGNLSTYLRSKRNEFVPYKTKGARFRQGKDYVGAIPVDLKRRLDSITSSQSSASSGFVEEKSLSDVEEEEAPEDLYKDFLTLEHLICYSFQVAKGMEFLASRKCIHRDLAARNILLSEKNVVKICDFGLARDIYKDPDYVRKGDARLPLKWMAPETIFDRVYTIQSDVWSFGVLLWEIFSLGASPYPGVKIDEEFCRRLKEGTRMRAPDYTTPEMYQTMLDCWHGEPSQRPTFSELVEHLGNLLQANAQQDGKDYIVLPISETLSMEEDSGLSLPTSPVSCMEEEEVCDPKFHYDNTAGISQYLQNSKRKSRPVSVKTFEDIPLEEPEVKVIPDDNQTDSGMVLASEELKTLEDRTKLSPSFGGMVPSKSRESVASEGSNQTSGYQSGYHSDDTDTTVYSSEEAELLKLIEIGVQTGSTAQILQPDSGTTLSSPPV
T4 sequence (P49759 whole entry): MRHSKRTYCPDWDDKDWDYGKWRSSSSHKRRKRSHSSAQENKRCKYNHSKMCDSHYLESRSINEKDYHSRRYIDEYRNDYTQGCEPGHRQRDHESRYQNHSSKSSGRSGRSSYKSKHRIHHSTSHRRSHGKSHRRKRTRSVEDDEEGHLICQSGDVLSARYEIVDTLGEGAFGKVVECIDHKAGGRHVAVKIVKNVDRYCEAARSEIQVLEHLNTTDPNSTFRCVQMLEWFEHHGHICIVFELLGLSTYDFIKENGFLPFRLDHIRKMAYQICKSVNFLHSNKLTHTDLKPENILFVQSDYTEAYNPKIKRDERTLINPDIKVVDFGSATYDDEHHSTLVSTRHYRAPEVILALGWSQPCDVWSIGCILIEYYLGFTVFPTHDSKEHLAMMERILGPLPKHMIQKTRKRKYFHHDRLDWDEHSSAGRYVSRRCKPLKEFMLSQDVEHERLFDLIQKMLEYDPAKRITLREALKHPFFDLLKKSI
T3 sequence (P09619 33-1106): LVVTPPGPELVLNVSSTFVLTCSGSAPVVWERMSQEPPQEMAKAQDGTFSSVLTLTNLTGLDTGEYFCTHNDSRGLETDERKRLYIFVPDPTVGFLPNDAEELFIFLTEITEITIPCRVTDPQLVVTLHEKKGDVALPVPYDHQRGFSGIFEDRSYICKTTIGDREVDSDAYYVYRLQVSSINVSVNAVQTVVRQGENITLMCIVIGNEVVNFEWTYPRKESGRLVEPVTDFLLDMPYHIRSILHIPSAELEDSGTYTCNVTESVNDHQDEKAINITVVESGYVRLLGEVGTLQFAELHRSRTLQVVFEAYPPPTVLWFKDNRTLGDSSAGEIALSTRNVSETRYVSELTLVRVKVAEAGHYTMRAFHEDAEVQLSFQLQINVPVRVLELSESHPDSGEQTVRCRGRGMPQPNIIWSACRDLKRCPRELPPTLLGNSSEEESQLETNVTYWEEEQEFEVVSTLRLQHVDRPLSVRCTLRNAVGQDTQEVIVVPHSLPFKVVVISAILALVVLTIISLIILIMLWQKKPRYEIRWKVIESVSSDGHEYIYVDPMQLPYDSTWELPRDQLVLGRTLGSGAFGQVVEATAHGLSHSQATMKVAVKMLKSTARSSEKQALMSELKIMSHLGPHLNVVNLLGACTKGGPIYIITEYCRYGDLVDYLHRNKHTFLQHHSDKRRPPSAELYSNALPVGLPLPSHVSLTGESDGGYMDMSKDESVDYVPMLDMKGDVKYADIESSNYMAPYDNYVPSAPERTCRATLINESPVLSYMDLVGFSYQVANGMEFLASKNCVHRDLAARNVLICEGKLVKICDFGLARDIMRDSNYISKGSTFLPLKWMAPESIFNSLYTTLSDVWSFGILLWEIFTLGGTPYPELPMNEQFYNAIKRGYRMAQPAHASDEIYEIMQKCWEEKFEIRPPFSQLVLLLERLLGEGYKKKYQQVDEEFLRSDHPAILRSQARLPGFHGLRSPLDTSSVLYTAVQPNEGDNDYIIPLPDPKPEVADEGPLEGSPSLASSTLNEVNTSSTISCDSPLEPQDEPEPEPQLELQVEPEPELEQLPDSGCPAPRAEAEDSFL
T1 sequence (P10721 26-976): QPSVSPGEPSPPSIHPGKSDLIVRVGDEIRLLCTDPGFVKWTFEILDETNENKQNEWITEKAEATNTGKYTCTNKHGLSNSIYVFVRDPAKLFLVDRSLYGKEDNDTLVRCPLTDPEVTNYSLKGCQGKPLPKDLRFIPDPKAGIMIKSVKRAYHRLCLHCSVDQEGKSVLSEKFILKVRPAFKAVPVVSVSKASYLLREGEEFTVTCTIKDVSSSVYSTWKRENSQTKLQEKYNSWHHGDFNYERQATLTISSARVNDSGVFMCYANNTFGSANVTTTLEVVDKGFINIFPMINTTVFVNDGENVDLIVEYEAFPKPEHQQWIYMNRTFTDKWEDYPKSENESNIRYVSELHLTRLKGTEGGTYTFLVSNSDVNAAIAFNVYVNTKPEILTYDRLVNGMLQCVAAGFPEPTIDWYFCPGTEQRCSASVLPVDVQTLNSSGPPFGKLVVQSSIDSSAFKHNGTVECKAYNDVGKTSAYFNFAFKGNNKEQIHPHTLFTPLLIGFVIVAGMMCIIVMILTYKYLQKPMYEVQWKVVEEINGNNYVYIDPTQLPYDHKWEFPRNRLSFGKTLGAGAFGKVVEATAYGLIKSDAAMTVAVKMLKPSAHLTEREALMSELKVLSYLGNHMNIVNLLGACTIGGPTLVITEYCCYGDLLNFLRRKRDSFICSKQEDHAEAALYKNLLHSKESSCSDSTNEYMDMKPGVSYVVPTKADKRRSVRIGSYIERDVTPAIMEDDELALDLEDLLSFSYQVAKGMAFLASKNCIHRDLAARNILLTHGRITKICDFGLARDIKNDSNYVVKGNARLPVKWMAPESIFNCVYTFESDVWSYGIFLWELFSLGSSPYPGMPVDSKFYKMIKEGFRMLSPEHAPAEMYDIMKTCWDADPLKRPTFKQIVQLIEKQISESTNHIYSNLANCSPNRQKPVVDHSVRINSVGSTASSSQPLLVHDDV
T5 sequence (P16234 24-1089): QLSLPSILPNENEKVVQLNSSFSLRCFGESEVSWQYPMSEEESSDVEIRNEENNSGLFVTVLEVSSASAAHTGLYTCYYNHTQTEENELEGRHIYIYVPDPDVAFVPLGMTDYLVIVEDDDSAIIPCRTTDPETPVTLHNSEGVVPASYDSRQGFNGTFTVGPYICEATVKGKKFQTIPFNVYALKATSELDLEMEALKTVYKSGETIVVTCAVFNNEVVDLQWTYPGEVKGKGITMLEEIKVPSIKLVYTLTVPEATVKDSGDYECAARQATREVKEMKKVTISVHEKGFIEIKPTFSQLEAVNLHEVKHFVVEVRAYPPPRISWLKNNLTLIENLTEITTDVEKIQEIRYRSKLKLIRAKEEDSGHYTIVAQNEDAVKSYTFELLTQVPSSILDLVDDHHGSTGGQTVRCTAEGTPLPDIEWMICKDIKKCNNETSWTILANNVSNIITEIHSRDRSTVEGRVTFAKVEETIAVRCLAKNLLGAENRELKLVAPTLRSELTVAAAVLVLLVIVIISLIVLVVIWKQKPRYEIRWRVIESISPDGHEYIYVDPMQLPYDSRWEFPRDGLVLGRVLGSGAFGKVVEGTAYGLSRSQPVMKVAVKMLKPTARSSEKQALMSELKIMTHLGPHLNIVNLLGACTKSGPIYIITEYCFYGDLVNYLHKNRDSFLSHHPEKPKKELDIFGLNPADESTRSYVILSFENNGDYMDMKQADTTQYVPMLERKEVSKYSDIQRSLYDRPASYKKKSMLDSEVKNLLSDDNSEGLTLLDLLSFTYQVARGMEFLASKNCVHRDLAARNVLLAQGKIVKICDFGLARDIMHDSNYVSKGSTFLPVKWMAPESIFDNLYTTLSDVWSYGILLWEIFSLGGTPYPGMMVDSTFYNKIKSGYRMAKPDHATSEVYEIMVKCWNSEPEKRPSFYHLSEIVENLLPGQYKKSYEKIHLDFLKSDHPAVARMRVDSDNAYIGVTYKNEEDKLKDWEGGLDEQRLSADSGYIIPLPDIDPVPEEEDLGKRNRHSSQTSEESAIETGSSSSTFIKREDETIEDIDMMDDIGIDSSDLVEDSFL

For orientation: inhibition means the percentage by which the read-out fell short of the control. As for `Clc1ccc(Nc2ncc(-c3ccccc3)s2)cc1` [Compound 10], the inhibition at 10 µM in experiment [1] (setting [15]) was > 99%; in [1] (setting [16]), 99%; in experiment [2] it was 0%; in [3] (10 μM, n = 1, read-out: percent inhibition PDGFRβ), > 99%; in experiment [3] (setting [17]), 99.9%; in experiment [4] (setting [18]), 0%. For the same molecule, the inhibition at 10 µM is > 90% in experiment [5] (setting [19]); 98.9% in experiment [5] (setting [20]); 0% in experiment [6] (setting [21]); 0% in [7]; 0% in experiment [8]; 0% in experiment [9]. Besides, the inhibition at 10 µM in experiment [10], in experiment [11], in experiment [12], in [13] and in experiment [14] was 0% each time. Moreover, in experiment [11] (kinome profiling, 10 μM), the “inhibition of KDR (VEGFR2), in words” value is given as “relatively weak inhibition”.
Turning to `Nc1ncc2c(-c3ccncc3)c[nH]c2n1` [Compound 11], the inhibition at 10 µM in [1] (setting [15]) was ≥ 99%; in [1] (setting [16]) it was 99.3%; in experiment [2], 0%; in experiment [3] (setting [17]) it was 93.2%; in [4] (10 μM, n = 1, read-out: percent inhibition CLK1) it was ≥ 99%; in [4] (setting [18]) it was 99.2%. The inhibition at 10 µM is ≥ 99% in experiment [5] (setting [19]); 100% in experiment [5] (setting [20]); ≥ 99% in [6] (10 μM, n = 1, read-out: percent inhibition CSNK1D); 99.9% in experiment [6] (setting [21]); 0% in experiment [7]; 0% in experiment [8]. Further, the inhibition at 10 µM in [9], in experiment [10], in experiment [11], in experiment [12], in experiment [13] and in experiment [14] was 0% each time.
